Conditions: Fluid (supercritical or subcritical phases), Brillouin light scattering technique

CCCCCC [hexane]
Conditions | speed of sound [m/s]
509.17 K, 3500 kPa | 162.1
509.4 K, 4500 kPa | 243.8
509.44 K, 6500 kPa | 331.1
509.57 K, 5500 kPa | 291.1
509.67 K, 7500 kPa | 361.3
511.22 K, 5500 kPa | 286.1
511.26 K, 4500 kPa | 232.7
511.27 K, 6500 kPa | 324.2
511.34 K, 7500 kPa | 355.3
511.69 K, 3500 kPa | 138.7
514.25 K, 7500 kPa | 347.2
514.43 K, 6500 kPa | 314.1
514.46 K, 3500 kPa | 112.5
514.5 K, 4500 kPa | 216.4
514.6 K, 5500 kPa | 272
517.46 K, 7500 kPa | 336.8
517.47 K, 4500 kPa | 201.9
517.58 K, 6500 kPa | 303.6
517.72 K, 3500 kPa | 95.8
517.82 K, 5500 kPa | 260.2
519.87 K, 3500 kPa | 100.4
520.19 K, 7500 kPa | 328.5
520.36 K, 4500 kPa | 183.7
520.46 K, 6500 kPa | 289
520.54 K, 5500 kPa | 245.2
523.4 K, 4500 kPa | 168.4
523.63 K, 6500 kPa | 278.2
523.79 K, 3500 kPa | 112.7
523.89 K, 5500 kPa | 229.4
523.93 K, 7500 kPa | 316.5
527.66 K, 4500 kPa | 155
527.85 K, 3500 kPa | 120.4
528.22 K, 5500 kPa | 210.9
528.42 K, 7500 kPa | 304.2
528.58 K, 6500 kPa | 263.2
533.3 K, 4500 kPa | 131.7
533.43 K, 7500 kPa | 285.3
533.48 K, 6500 kPa | 248.1
533.62 K, 5500 kPa | 194.1
533.83 K, 3500 kPa | 134.2
538.14 K, 4500 kPa | 125
538.33 K, 5500 kPa | 174.8
538.58 K, 6500 kPa | 231.5
538.81 K, 7500 kPa | 270.8
538.84 K, 3500 kPa | 140.1
543 K, 4500 kPa | 125.6
543.14 K, 6500 kPa | 219.9
543.21 K, 5500 kPa | 165.4
543.52 K, 7500 kPa | 259.9
543.69 K, 3500 kPa | 145.3
547.89 K, 5500 kPa | 158.2
547.96 K, 4500 kPa | 130.2
548.14 K, 6500 kPa | 207.4
548.31 K, 3500 kPa | 149.2
548.56 K, 7500 kPa | 248.3
553.1 K, 3500 kPa | 155.1
553.44 K, 7500 kPa | 235.1
553.55 K, 6500 kPa | 194.1
553.6 K, 4500 kPa | 134.9
554.09 K, 5500 kPa | 150.9
558.44 K, 3500 kPa | 161.5
558.48 K, 4500 kPa | 139.2
558.9 K, 5500 kPa | 144.8
559.79 K, 6500 kPa | 180.9
560.33 K, 7500 kPa | 222.2
562.44 K, 4500 kPa | 142.8
562.56 K, 3500 kPa | 164.9
563.13 K, 5500 kPa | 143.4
563.76 K, 6500 kPa | 171.7
563.92 K, 7500 kPa | 215.1
567.95 K, 4500 kPa | 150.6
568.21 K, 3500 kPa | 168.8
568.4 K, 5500 kPa | 146.5
568.54 K, 7500 kPa | 205.6
568.59 K, 6500 kPa | 169
573.12 K, 7500 kPa | 201.1
573.18 K, 5500 kPa | 150
573.36 K, 4500 kPa | 155.7
573.51 K, 6500 kPa | 165.9
574.58 K, 3500 kPa | 174.8
578.08 K, 4500 kPa | 161.3
578.22 K, 5500 kPa | 154
578.65 K, 6500 kPa | 167.9
578.77 K, 3500 kPa | 177.5
579.07 K, 7500 kPa | 191.7
582.79 K, 5500 kPa | 157.3
582.93 K, 4500 kPa | 164.7
583.09 K, 6500 kPa | 165.5
583.3 K, 7500 kPa | 190.5
584.09 K, 3500 kPa | 183
587.91 K, 4500 kPa | 170.5
588.07 K, 5500 kPa | 160.4
588.45 K, 6500 kPa | 166.4
588.59 K, 3500 kPa | 186.5
589.01 K, 7500 kPa | 188.8
592.61 K, 5500 kPa | 164.2
592.78 K, 6500 kPa | 168.5
593.04 K, 4500 kPa | 174.8
593.24 K, 7500 kPa | 187.8
594.05 K, 3500 kPa | 188.6
597.84 K, 4500 kPa | 178.5
597.98 K, 5500 kPa | 169.1
598.14 K, 6500 kPa | 168.6
598.52 K, 7500 kPa | 186.2
598.83 K, 3500 kPa | 192.2
602.73 K, 4500 kPa | 181.2
602.85 K, 5500 kPa | 172
603.05 K, 6500 kPa | 173.4
603.41 K, 3500 kPa | 195.9
603.44 K, 7500 kPa | 186
608.03 K, 4500 kPa | 183.5
608.05 K, 5500 kPa | 178
608.12 K, 6500 kPa | 175.1
608.49 K, 7500 kPa | 185.6
608.96 K, 3500 kPa | 198.5
612.5 K, 5500 kPa | 180.2
612.69 K, 6500 kPa | 179.7
612.7 K, 4500 kPa | 187
613.43 K, 7500 kPa | 187.8
614.5 K, 3500 kPa | 203.1
617.91 K, 4500 kPa | 193.6
618.05 K, 5500 kPa | 184.3
618.21 K, 6500 kPa | 182
618.56 K, 7500 kPa | 190.1
618.79 K, 3500 kPa | 204.3
622.49 K, 6500 kPa | 184.8
622.59 K, 7500 kPa | 191
622.8 K, 5500 kPa | 186.5
623.06 K, 4500 kPa | 195.6
624.52 K, 3500 kPa | 206.1
628.11 K, 5500 kPa | 190.4
628.12 K, 7500 kPa | 194.6
628.15 K, 4500 kPa | 198.3
628.16 K, 6500 kPa | 189
629.29 K, 3500 kPa | 209.3
632.52 K, 4500 kPa | 202.1
632.99 K, 6500 kPa | 192.3
633.06 K, 7500 kPa | 196.8
633.07 K, 5500 kPa | 193.6
633.86 K, 3500 kPa | 210.4
635.27 K, 7500 kPa | 198
635.5 K, 6500 kPa | 194.3
636.04 K, 5500 kPa | 195
636.79 K, 4500 kPa | 204.9
637.99 K, 3500 kPa | 211.6

Source: the NIST ThermoML archive (doi:10.1016/j.fluid.2019.06.001)
